Patent US20240307487A1 (priority 2020, published 2024)
In brackets after ≈: the same amount, converted by molar mass. Where a name gives a salt, the structure may show the parent alone. Read-outs that look alike come from different tables or passages of the source. Where a SMILES comes first, the peptide text is derived from it.

How the values were obtained:
[1] = tested on: SARS-CoV-2
[2] = tested on: parainfluenza virus 3
[3] = tested on: A(H1N1)pdm09 virus; type: cell-based
[4] = tested on: endosomal acidification in MDCK cells; type: cell-based, canine
[5] = tested on: virus-host endosomal acidification; type: cell-based
[6] = tested on: SARS-CoV-2; type: binding
[7] = tested on: A(H1N1)pdm09 virus; type: binding
[8] = tested on: MERS-CoV; type: binding
[9] = tested on: A(H7N9) virus; type: binding
[10] = tested on: rhinovirus; type: binding; conditions: peptide coated on ELISA plate, bound virus by RT-qPCR
[11] = tested on: SARS-CoV; type: binding
[12] = tested on: parainfluenza 3 (Para-3); type: cell-based; conditions: 24 h post-infection
[13] = tested on: MERS-CoV
[14] = tested on: A(H7N9) virus
[15] = tested on: rhinovirus
[16] = tested on: rhinovirus; remark: listed apart in the source
[17] = target: H1N1 HA1 protein (Influenza A virus, UniProt C3W5S1)
Chain of H1N1 HA1 protein (C3W5S1 18-344 limits assumed): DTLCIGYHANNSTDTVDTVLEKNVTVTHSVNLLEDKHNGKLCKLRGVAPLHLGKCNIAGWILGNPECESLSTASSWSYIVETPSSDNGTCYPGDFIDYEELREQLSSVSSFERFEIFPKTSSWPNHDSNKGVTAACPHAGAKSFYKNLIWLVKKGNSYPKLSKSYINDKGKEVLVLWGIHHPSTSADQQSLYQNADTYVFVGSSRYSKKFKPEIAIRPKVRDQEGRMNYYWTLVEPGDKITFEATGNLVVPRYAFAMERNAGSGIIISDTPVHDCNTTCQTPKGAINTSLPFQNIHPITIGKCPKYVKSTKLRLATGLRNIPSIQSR

[18] = target: MERS-CoV S protein (Middle East respiratory syndrome-related coronavirus, UniProt K9N5Q8)
Chain of MERS-CoV S protein (K9N5Q8 18-1353 limits assumed): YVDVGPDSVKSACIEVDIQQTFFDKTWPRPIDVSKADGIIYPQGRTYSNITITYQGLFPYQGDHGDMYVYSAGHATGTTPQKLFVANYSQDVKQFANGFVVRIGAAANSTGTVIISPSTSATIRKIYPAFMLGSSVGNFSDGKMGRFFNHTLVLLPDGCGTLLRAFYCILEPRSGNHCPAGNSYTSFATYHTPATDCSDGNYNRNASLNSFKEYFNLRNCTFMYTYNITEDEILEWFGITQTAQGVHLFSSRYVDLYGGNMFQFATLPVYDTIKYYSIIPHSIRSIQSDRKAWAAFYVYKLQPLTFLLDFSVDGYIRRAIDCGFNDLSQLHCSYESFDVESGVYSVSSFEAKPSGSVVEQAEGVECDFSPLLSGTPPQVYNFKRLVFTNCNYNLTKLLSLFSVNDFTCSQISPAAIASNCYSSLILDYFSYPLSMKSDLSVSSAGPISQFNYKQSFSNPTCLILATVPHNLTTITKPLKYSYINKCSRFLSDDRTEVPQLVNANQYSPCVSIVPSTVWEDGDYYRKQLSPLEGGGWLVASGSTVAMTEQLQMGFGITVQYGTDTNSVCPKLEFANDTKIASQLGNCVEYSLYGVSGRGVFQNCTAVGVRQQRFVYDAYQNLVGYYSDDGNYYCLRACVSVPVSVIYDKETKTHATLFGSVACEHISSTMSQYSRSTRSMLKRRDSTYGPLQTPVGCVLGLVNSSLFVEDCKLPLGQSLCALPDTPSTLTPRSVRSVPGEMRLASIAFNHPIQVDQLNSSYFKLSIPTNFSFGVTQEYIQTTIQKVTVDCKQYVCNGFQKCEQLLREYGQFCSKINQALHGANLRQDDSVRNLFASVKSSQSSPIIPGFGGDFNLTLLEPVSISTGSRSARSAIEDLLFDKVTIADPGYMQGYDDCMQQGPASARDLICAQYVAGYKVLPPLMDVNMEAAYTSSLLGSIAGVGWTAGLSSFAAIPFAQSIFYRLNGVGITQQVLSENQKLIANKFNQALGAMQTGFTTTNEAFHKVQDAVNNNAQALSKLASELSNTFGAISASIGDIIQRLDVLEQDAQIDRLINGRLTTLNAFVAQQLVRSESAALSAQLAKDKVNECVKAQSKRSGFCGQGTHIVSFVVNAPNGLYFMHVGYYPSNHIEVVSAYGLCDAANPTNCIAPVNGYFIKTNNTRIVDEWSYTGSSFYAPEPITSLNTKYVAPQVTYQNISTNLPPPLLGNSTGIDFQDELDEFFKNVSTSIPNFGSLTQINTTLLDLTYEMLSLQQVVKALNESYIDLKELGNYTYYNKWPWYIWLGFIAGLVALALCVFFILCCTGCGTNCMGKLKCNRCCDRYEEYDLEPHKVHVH

[19] = in vitro; conditions: dog
[20] = in vitro; conditions: African green monkey
[21] = in vitro; conditions: human
[22] = tested on: SARS-CoV-2; experiment: microbe, parasite or virus in culture; type: cell-based
[23] = in vivo; cited from earlier work
[24] = tested on: spike-ACE2 mediated cell fusion; type: cell-based, human
[25] = tested on: SARS-CoV; design: species or system mice; conditions: in vivo
[26] = tested on: SARS-CoV-2; design: species or system hamsters; conditions: in vivo
[27] = tested on: SARS-CoV-2; conditions: cited from earlier work
[28] = tested on: SARS-CoV-2; conditions: cited from earlier work; remark: listed apart in the source
[29] = tested on: SARS-CoV-2; type: cell-based
[30] = tested on: SARS-CoV; type: cell-based

## CC[C@H](C)[C@H](NC(=O)[C@H](C)NC(=O)CNC(=O)[C@@H](N)CC(N)=O)C(=O)N[C@@H](CS)C(=O)N[C@@H](Cc1c[nH]c2ccccc12)C(=O)NCC(=O)N1CCC[C@H]1C(=O)N[C@@H](CS)C(=O)N1CCC[C@H]1C(=O)N[C@H](C(=O)N[C@@H](C)C(=O)N[C@@H](Cc1ccccc1)C(=O)N[C@@H](CCCNC(=N)N)C(=O)N[C@@H](CCC(N)=O)C(=O)N[C@H](C(=O)NCC(=O)N[C@@H](CC(N)=O)C(=O)N[C@@H](CS)C(=O)NCC(=O)N[C@@H](Cc1c[nH]cn1)C(=O)N[C@@H](Cc1ccccc1)C(=O)N[C@@H](CCCCN)C(=O)N[C@H](C(=O)N[C@@H](CCCNC(=N)N)C(=O)N[C@@H](CS)C(=O)N[C@@H](CS)C(=O)N[C@@H](CCCCN)C(=O)N[C@H](C(=O)N[C@@H](CCCNC(=N)N)C(=O)O)[C@@H](C)CC)C(C)C)[C@@H](C)CC)[C@@H](C)O [P9, reference compound]
[1]
  IC50 against SARS-CoV-2: 2.4 µg/mL (≈ 0.719 µM)
[2]
  IC50 against parainfluenza virus 3: > 25.0 µg/mL

## CC[C@H](C)[C@H](NC(=O)[C@H](C)NC(=O)CNC(=O)[C@@H](N)CC(N)=O)C(=O)N[C@@H](CS)C(=O)N[C@@H](Cc1c[nH]c2ccccc12)C(=O)NCC(=O)N1CCC[C@H]1C(=O)N[C@@H](CS)C(=O)N1CCC[C@H]1C(=O)N[C@H](C(=O)N[C@@H](C)C(=O)N[C@@H](Cc1ccccc1)C(=O)N[C@@H](CCCNC(=N)N)C(=O)N[C@@H](CCC(N)=O)C(=O)N[C@H](C(=O)NCC(=O)N[C@@H](CC(N)=O)C(=O)N[C@@H](CS)C(=O)NCC(=O)N[C@@H](CCCNC(=N)N)C(=O)N[C@@H](Cc1ccccc1)C(=O)N[C@@H](CCCNC(=N)N)C(=O)N[C@H](C(=O)N[C@@H](CCCNC(=N)N)C(=O)N[C@@H](CS)C(=O)N[C@@H](CS)C(=O)N[C@@H](CCCNC(=N)N)C(=O)N[C@H](C(=O)N[C@@H](CCCNC(=N)N)C(=O)O)[C@@H](C)CC)C(C)C)[C@@H](C)CC)[C@@H](C)O [P9R] (H-NGAICWGPCPTAFRQIGNCGRFRVRCCRIR-OH)
[3]
  inhibition against A(H1N1)pdm09 virus compared with P9: significantly stronger inhibition
[4]
  inhibition of endosomal acidification (no-virus endosomes): could more significantly inhibit endosomal acidification
[5]
  inhibition of virus-host endosomal acidification: could efficiently inhibit
[6]
  binding to SARS-CoV-2: could efficiently bind
[7]
  binding to A(H1N1)pdm09 virus: could efficiently bind
[8]
  binding to MERS-CoV: could also bind
[9]
  binding to A(H7N9) virus: could also bind
[10]
  binding to rhinovirus: could also bind
[11]
  binding to SARS-CoV: could also bind
[12]
  parainfluenza 3 viral RNA in LLC-MK2 cells: inhibits parainfluenza 3 in LLC-MK2 cells
[1]
  IC50 against SARS-CoV-2: 0.9 µg/mL (≈ 0.264 µM)
[13]
  inhibition against MERS-CoV compared with P9: significantly stronger inhibition
[14]
  inhibition against A(H7N9) virus compared with P9: significantly stronger inhibition
[15]
  inhibition against rhinovirus compared with P9: significantly stronger inhibition
[16]
  inhibition of viral replication, rhinovirus: > 20 fold
[17]
  binding to viral proteins: H1N1 HA1 protein: could also bind
[18]
  binding to viral proteins: MERS-CoV S protein: could also bind
[19]
  CC50 at 24 h: > 300 µg/mL
[20]
  CC50 at 24 h: > 300 µg/mL
[21]
  CC50 at 24 h: > 300 µg/mL

## CCOC(=O)c1c(CSc2ccccc2)n(C)c2cc(Br)c(O)c(CN(C)C)c12 [arbidol]
[22]; Severe acute respiratory syndrome coronavirus 2, Vero C1008, 24 h, read-out: normal IC50 of arbidol against SARS-CoV-2
  IC50: 3.6 µg/mL (≈ 7.54 µM)
[23]
  peak serum concentration: lower than 2 μg ml-1

## CO/C1=C\C(C)=C\[C@@H](C)[C@@H](O)[C@@H](C)C/C(C)=C/C=C/[C@H](OC)[C@@H]([C@@H](C)[C@@H](O)[C@H](C)[C@@]2(O)C[C@@H](O)[C@H](C)[C@@H](C(C)C)O2)OC1=O [bafilomycin A1, reference compound]
[5]
  inhibition of virus-host endosomal acidification: could efficiently inhibit
[24]
  spike-ACE2 mediated cell membrane fusion: could inhibit spike-ACE2 mediated cell membrane fusion

## CN(C)C(=O)COC(=O)Cc1ccc(OC(=O)c2ccc(NC(=N)N)cc2)cc1 [camostat, Camostat mesylate]
[25]
  SARS-CoV replication in mouse lungs: could not inhibit viral replication
[26]
  SARS-CoV-2 replication in hamster lungs: could not significantly inhibit SARS-CoV-2 replication in hamsters
[27]
  SARS-CoV-2 replication in Calu-3 cells: could significantly inhibit SARS-CoV-2 replication in Calu-3 cells
[28]
  SARS-CoV-2 replication in Vero-E6 cells: could not inhibit SARS-CoV-2 replication

## CCN(CC)CCCC(C)Nc1ccnc2cc(Cl)ccc12 (stereo not shown) [chloroquine]
[22]
  SARS-CoV-2 replication in Vero-E6 cells: could significantly inhibit SARS-CoV-2 replication in Vero-E6 cells
  enhancement of antiviral activity of arbidol against SARS-CoV-2: could significantly enhance the antiviral activity of arbidol
[29]
  SARS-CoV-2 replication in Calu-3 cells: not in Calu-3 cells
[30]
  enhancement of antiviral activity of arbidol against SARS-CoV: could significantly enhance the antiviral activity of arbidol
[25]
  SARS-CoV replication in mouse lungs: could not inhibit SARS-CoV replication in mouse lungs
[26]
  SARS-CoV-2 replication in hamster lungs: could not significantly inhibit SARS-CoV-2 replication in hamsters
[27]
  SARS-CoV-2 replication in Calu-3 cells: did not inhibit SARS-CoV-2 replication in Calu-3 cells
